From paper PMC10649274 (International Journal of Molecular Sciences, 2023)
Where “and” joins values, the source holds several entries; their conditions need not be identical. Identical values can stand only once. Entries after “also recorded” stand apart in the source; their conditions may differ. Like-named read-outs stand apart in the source and are kept apart here.

Columns and labels:
[1] = test system: native NMDA receptors; details: cited from earlier work
[2] = test system: rat retinal excitotoxicity model; details: cited from earlier work
[3] = test system: native NMDA receptors; experiment: Whole-cell patch clamp of NMDA plus glycine induced currents in isolated CA1 pyramidal neurons; format: cell-based, rat
Protocol: The rats were anesthetised with sevoflurane and then decapitated. The brains were brought out quickly and cooled to 2–4 °C. […] All experiments were performed at room temperature.
Vibrodissociation method was used to free CA1 pyramidal neurons from slices. This method allows for isolating cells without enzymatic treatment and keeping them in more native state. Pyramidal cells were isolated from the stratum pyramidale and distinguished from non-pyramidal cells on the basis of pyramidal-like somata and preserved apical dendrites.
To record membrane currents in response to applications of NMDA and glycine, the whole-cell configuration of patch clamp technique was used. Series resistance (<20 MΩ) was compensated by 70–80% and monitored during experiments. Only cells with stable holding currents were used in further analysis. The current signals were amplified using EPC-8 (HEKA Electronics, Lambrecht, Germany), filtered at 5 kHz, sampled, and stored on a personal computer. RSC-200 (BioLogic Science Instruments, Claix, France) perfusion system was used to apply the drugs under computer control. […] The pipettes with resistance of 2–5 MΩ were filled with the following solution (in mM): CsF 100, CsCl 40, NaCl 5, CaCl2 0.5, EGTA 5, HEPES 10 (pH adjusted to 7.2 with CsOH). […] Other reagents were purchased from MedChemExpress (Monmouth Junction, NJ, USA), Sigma (St. Louis, MO, USA), or Tocris Bioscience (Bristol, UK).
NMDA receptors were activated with 100 µM NMDA plus 10 µM glycine unless otherwise stated. […] Kinetics of transient processes of more than 20 ms duration were approximated with single or double exponential functions. In case of double exponential fitting, the weighted time constant was used.

[4] = target: native NMDA receptors; experiment: Analysis of voltage dependence of NMDA receptor block (Woodhull model with voltage-independent component, Equation (2)); format: cell-based, rat
Protocol: NMDA receptors were activated with 100 µM NMDA plus 10 µM glycine unless otherwise stated. The percentages of blocking of the steady-state or peak currents by different drug concentrations were measured at −80, −30 or +30 mV holding voltages. Kinetics of transient processes of more than 20 ms duration were approximated with single or double exponential functions. In case of double exponential fitting, the weighted time constant was used.
The voltage dependence of compounds’ action was analyzed with the classical Woodhull model with the addition of a voltage-independent component. […] Kb is the affinity of a drug for the channel, and δ is the electrical depth of the binding site. The δ value reflects the fraction of membrane electric field that the charged blocking molecule crosses on its pathway between the external media and the binding site in the channel.
Thus, we deduced Equation (2), taking it into account and assuming that the binding to the deep and shallow site is independent:(2) B=100−100/(1+C/(Kvd∗exp〖Fzδ/RTV〗)+C/Kvi+(C∗C)/((Kvd∗exp〖Fzδ/RTV〗∗Kvi))
In this equation, Kvd is the affinity of the drug to the deep site, Kvi—the affinity of the drug to the shallow site, and other parameters are the same as in Equation (1).
All experimental data are presented as the mean ± SD estimated from at least four experiments (cells). Significance of the effects was tested with t-tests. Differences were considered significant at p < 0.05. Concentration dependencies were approximated with Hill equation. Voltage dependencies were approximated with Equation (2). […] Approximation error values were taken as the precision measures.

[5] = test system: native NMDA receptors; details: cited from earlier work; remark: listed apart in the source
[6] = target: GLUN2B-containing NMDA receptor; details: fractionated rat brain membranes; read-out: IC50 of [3H]ifenprodil binding inhibition; cited from earlier work
[7] = test system: animal pancreatitis models; details: cited from earlier work
[8] = −80 mV holding voltage, native NMDA receptors, earlier papers of the authors, read-out: IC50, −80 mV
[9] = Equation (2) with fixed zδ (0.55 mono-, 1.1 dicationic), reanalysis of earlier data [16],[17], read-out: Kvd, fixed zδ (converted)
[10] = Equation (2) with fixed zδ (0.55 mono-, 1.1 dicationic), reanalysis of earlier data [16],[17], read-out: Kvi, fixed zδ (converted)
[11] = fit with consensus zδ, read-out: binding constant for the deep site (Kvd)
[12] = Equation (2) fit, zδ free, reanalysis of the authors' earlier voltage dependence data [16],[17], read-out: Kvd
[13] = Equation (2) fit, zδ free, reanalysis of the authors' earlier voltage dependence data [16],[17], read-out: Kvi
[14] = −30 mV, 1 mM Mg2+, read-out: IC50 in the presence of magnesium

## CN(C)C(=O)COC(=O)Cc1ccc(OC(=O)c2ccc(NC(=N)N)cc2)cc1 [Camostat]
[1]
  inhibition of native NMDA receptors: low activity; also recorded: practically ineffective
[1]; [8]
  IC50: > 100 µM
[2]
  retinal protection: did not demonstrate retinal protection activities

## NC(CCCP(=O)(O)O)C(=O)O [D-AP5]
[3]; 5 µM, high NMDA concentrations
  inhibition at high NMDA concentrations: became weak, decaying to zero

## N=C(N)c1ccc(-c2cc3ccc(C(=N)N)cc3[nH]2)cc1 [DAPI]
[1]
  type of channel block (interaction with channel gate): foot-in-the-door
[1]; [8]
  IC50: 3.1 ± 0.6 µM
[4]; [9]
  Kd: 5000 µM
[4]; [10]
  Kd: 3.16 µM
[4]; [11]
  Kd: > 1000 µM
[5]
  voltage dependence of NMDA receptor inhibition: Completely voltage-independent
[3]; −30 mV
  change of inhibition with increase of NMDA concentration: agonist-dependent
  inhibition at 1 mM NMDA: remained significant
[3]; −80 mV
  change of inhibition with increase of NMDA concentration from 30 to 1000 µM: agonist-dependent

## N=C(N)c1ccc(/N=N/Nc2ccc(C(=N)N)cc2)cc1 [Diminazene]
[1]
  type of channel block (interaction with channel gate): foot-in-the-door
[1]; [8]
  IC50: 13 ± 3 µM
[4]; [12]
  Kd: ~600 µM
[4]; [13]
  Kd: 14 ± 2 µM
[4]; [9]
  Kd: 1500 µM
[4]; [10]
  Kd: 14 ± 2 µM
[4]; [11]
  Kd: > 1000 µM
[5]
  voltage dependence of NMDA receptor inhibition: complex voltage dependence
[3]; −30 mV
  change of inhibition with increase of NMDA concentration: significant attenuation
  inhibition at 1 mM NMDA: remained significant
[3]; −80 mV
  change of inhibition with increase of NMDA concentration from 30 to 1000 µM: did not differ significantly

## N=C(N)c1ccc(-c2ccc(-c3ccc(C(=N)N)cc3)o2)cc1 [Furamidine]
[1]
  type of channel block (interaction with channel gate): foot-in-the-door
[1]; [8]
  IC50: 0.64 ± 0.13 µM
[4]; [12]
  Kd: 20 ± 5 µM
[4]; [13]
  Kd: 3.4 ± 0.4 µM
[4]; [9]
  Kd: 21.8 µM
[4]; [10]
  Kd: 3.3 µM
[5]
  voltage dependence of NMDA receptor inhibition: strongly voltage-dependent
[3]; holding voltage not stated
  change of inhibition with increase of NMDA concentration from 30 to 1000 µM: not attenuated significantly

## CCOC(=O)c1ccc(OC(=O)CCCCCNC(=N)N)cc1 [Gabexate]
[1]
  inhibition of native NMDA receptors: inhibited native NMDA receptors
  nature of voltage-independent inhibition: agonist-dependent but non-competitive; also recorded: mostly voltage-independent and not competitive
  type of channel block (interaction with channel gate): did not demonstrate any signs of a “foot-in-the-door” or trapping channel block
[1]; [8]
  IC50: 16 ± 3 µM
[4]; [12]
  Kd: ~300 µM
[4]; [13]
  Kd: 29 ± 8 µM
[4]; [9]
  Kd: 800 µM
[4]; [10]
  Kd: 25 µM
[2]
  retinal protection: did not demonstrate retinal protection activities
[5]
  voltage dependence of NMDA receptor inhibition: Completely voltage-independent

## CC(C(O)c1ccc(O)cc1)N1CCC(Cc2ccccc2)CC1 (stereo not drawn) [Ifenprodil, ifenprodil]
[1]; CA1 pyramidal cells, biphasic concentration dependence
  share of high-affinity component in inhibition of NMDA receptor currents: approximately 60%

## CC12CC3CC(C)(C1)CC(N)(C3)C2 [Memantine]
[1]; [14]
  IC50: 6.4 ± 0.5 µM

## N=C(N)c1ccc2cc(OC(=O)c3ccc(N=C(N)N)cc3)ccc2c1 [Nafamostat]
[6]
  IC50: 4.52 µM
[7]
  activity in animal pancreatitis models: significant activity
[1]
  effect on plateau/peak ratio: did not significantly change the plateau/peak ratio
  overshoots after washout: did not demonstrate overshoots
  type of channel block (interaction with channel gate): foot-in-the-door
[1]; −30 mV, 1 mM Mg2+
  activity in the presence of magnesium: attenuated in the presence of magnesium
[1]; [14]
  IC50: 1.7 ± 0.2 µM
[1]; [8]
  IC50: 0.2 ± 0.04 µM
[4]; [12]
  Kd: 12 ± 3 µM
[4]; [13]
  Kd: 2.9 ± 0.5 µM
[4]; [9]
  Kd: 10 µM and 10.5 µM
[4]; [10]
  Kd: 3 µM
[2]
  retinal protection: retinoprotective properties
[5]
  voltage dependence of NMDA receptor inhibition: strongly voltage-dependent
[3]; holding voltage not stated
  change of inhibition with increase of NMDA concentration from 30 to 1000 µM: not attenuated significantly

## N=C(N)c1ccc(OCCCCCOc2ccc(C(=N)N)cc2)cc1 [Pentamidine]
[1]
  IC50 (NMDA receptor antagonism): submicromolar range
  type of channel block (interaction with channel gate): partial trapping
[1]; [8]
  IC50: 0.41 ± 0.08 µM
[4]; [12]
  Kd: 60 ± 25 µM
[4]; [13]
  Kd: 8 ± 1 µM
[4]; [9]
  Kd: 27 µM
[4]; [10]
  Kd: 10 µM
[5]
  voltage dependence of NMDA receptor inhibition: strongly voltage-dependent
[3]; holding voltage not stated
  change of inhibition with increase of NMDA concentration from 30 to 1000 µM: not attenuated significantly

## N=C(N)c1ccc2cc(OC(=O)c3ccc(NC4=NCCN4)cc3)ccc2c1 [Sepimostat]
[6]
  IC50: 29.8 µM
[7]
  activity in animal pancreatitis models: significant activity
[4]; 5 µM
  voltage dependence of NMDA receptor inhibition: mostly voltage-independent with a small voltage-dependent component
[4]; Equation (2) fit, zδ free, steady-state, read-out: Kvd, constant for voltage-dependent binding (deep site)
  Kd: ~130 µM
[4]; Equation (2) fit, zδ free, steady-state, read-out: Kvi, constant for voltage-independent binding (shallow site)
  Kd: 7 ± 1 µM
[4]; Equation (2) with fixed zδ 0.55 (monocation), read-out: Kvd, fixed zδ (converted)
  Kd: 102 µM
[4]; Equation (2) with fixed zδ 0.55 (monocation), read-out: Kvi, fixed zδ (converted)
  Kd: 7 ± 1 µM
[2]
  retinal protection: retinoprotective properties
[3]
  nature of voltage-independent component of inhibition: agonist-dependent but non-competitive
[3]; 5 µM, 3 mM NMDA, +30 mV, n = 4
  % block: 25 ± 4%
[3]; 5 µM, 3 mM NMDA, −30 mV, n = 10
  % block: 20 ± 5%
[3]; 5 µM, 1000 and 3000 µM NMDA, −80 mV
  inhibition at high NMDA concentrations: about 50%
[3]; 5 µM, +30 mV, representative trace, Figure 2A
  % block: 47%
[3]; 5 µM, −30 mV, NMDA 30 µM, Figure 5A
  % block: 78%
[3]; 5 µM, −30 mV, NMDA 1 mM, Figure 5A
  % block: 26%
[3]; 5 µM, −30 mV, representative trace, Figure 2A
  % block: 49%
[3]; 5 µM, −80 mV, NMDA 30 µM, Figure 5A
  % block: 78%
[3]; 5 µM, −80 mV, NMDA 1 mM, Figure 5A
  % block: 44%
[3]; 5 µM, −80 mV, representative trace, Figure 2A
  % block: 57%
[3]; 5 µM, −120 mV, representative trace, Figure 2A
  % block: 72%
[3]; 10 µM, −80 mV, control 0.6 ± 0.1, n = 4
  plateau/peak ratio in the presence of blocker: 1.1 ± 0.3
[3]; 10 µM, −80 mV, n = 4
  normalized plateau/peak ratio ((IBS/IB0)/(ICS/IC0)): 1.8 ± 0.1
[3]; 30 µM, n = 5
  trapping in double-pulse protocol: no signs of trapping
[3]; 30 µM, overshoot falling phase, n = 4
  τfall of overshoot: 770 ± 140 ms
[3]; 30 µM, overshoot rising phase, n = 4
  τrise of overshoot: 62 ± 15 ms
[3]; 30 µM, washout in the presence of agonists, n = 4
  amplitude of overshoot relative to steady-state control response: 1.8 ± 0.3
[3]; 30 µM, −80 mV
  % block: > 90%
[3]; 30 µM, −80 mV, washout in the absence of agonists, n = 6
  amplitude of tail currents relative to steady-state control response: 1.3 ± 0.5
[3]; +30 mV holding voltage, steady-state, read-out: IC50, steady-state component
  IC50: 5.8 ± 1.5 µM
[3]; −30 mV
  change of inhibition with increase of NMDA concentration: attenuated
[3]; −30 mV, 1 mM Mg2+
  competition with Mg2+ for binding site in channel pore: does not compete
[3]; −30 mV, 1 mM Mg2+, n = 7, read-out: IC50 in the presence of magnesium
  IC50: 3.6 ± 1.1 µM
[3]; −30 mV, no Mg2+, n = 5, read-out: IC50 in the absence of magnesium
  IC50: 3.6 ± 1 µM
[3]; −80 mV
  change of inhibition with increase of NMDA concentration from 30 to 1000 µM: significantly decreased
  type of channel block (interaction with channel gate): foot-in-the-door
[3]; −80 mV holding voltage, NMDA 100 µM + glycine 10 µM, steady-state (plateau) current, read-out: IC50, steady-state component
  IC50: 3.5 ± 0.3 µM
[3]; −80 mV, NMDA 100 µM + glycine 10 µM, peak current, read-out: IC50, peak component
  IC50: 1.8 ± 0.4 µM
